Consider one molecule from patent US20090253126A1, “Biomarker Detection Assays” (ASTRAZENECA AB, priority 2004, published 2009).

In one assay the test system is Notch signal. The settings on record: cited from earlier work.
For the next assay, the system named is ADN mRNA. Nature of the assay: Gene expression profiling / QRT-PCR of adipsin (ADN) mRNA in intestinal tissue of treated rats. Format: in vivo. The settings on record: Han Wistar rats, intraperitoneally, 10, 30 and 100 μmol/kg/bid for 5 days. On the procedure: (§1) Using gene expression profiling we detected several deregulated factors that are consistent with Hes-1 KO data. We confirmed the up-regulation of ADN mRNA in intestinal tissue by DBZ and BZ treatment but not AS treatment. […] This up-regulation preceded the appearance of goblet cell metaplasia in the crypts.
(§2) Compounds with varying potency for modulating the Notch1 pathway and causing intestinal metaplasia were injected intraperitoneally into rats twice daily for 5 days at a concentration of 10 μmol/kg, 30 μmol/kg and 100 μmol/kg. A section of duodenum was taken from untreated rats and those treated with compound. Samples were immediately frozen in liquid nitrogen then placed in a freezer maintained at −80° C. for preservation. […]
(§3) Quantitative real-time PCR (QRT-PCR) was performed by creating a standard curve assaying the gene of interest at known cDNA quantities of 50 ng, 25 ng, 8.33 ng, 2.76 ng, 0.910 ng and 0.154 ng. […] Biosource International (Camarillo, Calif.) synthesized oligonucleotide primers and fluorescence resonance energy transfer (FRET) probes. […] The raw data were applied to the standard curve and quantities were extrapolated using Prism by GraphPad Software (San Diego, Calif.). These quantities were then transformed to express fold change relative to the vehicle control (VC).

Another assay relates to Math1 transcript. Nature of the assay: Detection of Math1 transcript by quantitative real-time PCR in duodenum of treated rats. Format: in vivo. The following applies: at earlier time points and at lower dose; Han Wistar rats, intraperitoneally, bid for 5 days. On the procedure:
as §1, §2, §3
A general note: Real-time PCR tracks product formation cycle by cycle.

For `C[C@H](NC(=O)Cc1cc(F)cc(F)c1)C(=O)N[C@@H]1C(=O)N(C)c2ccccc2-c2ccccc21` [DBZ], the Notch signal interruption entry with Notch signal is “known to interrupt the Notch signal”. Further, the “up-regulation of ADN mRNA in intestinal tissue” value in the assay on ADN mRNA is “up-regulation”. Moreover, in the assay on Math1 transcript, the “induction of Math1 compared with ADN” value is listed as “markedly higher than ADN”.
